Reference: ChEMBL document CHEMBL1201861, “Genomics of Drug Sensitity in Cancer screening data, Wellcome Trust Sanger Institute”

Key:
Experiment in all cases: cells
COLO-741 = format: functional, cell-based, Homo sapiens; details: Homo sapiens, COLO-741
Description: SANGER: Inhibition of human COLO-741 cell growth in a cell viability assay.

COLO-800 = format: functional, cell-based, Homo sapiens; details: Homo sapiens, COLO-800
Description: SANGER: Inhibition of human COLO-800 cell growth in a cell viability assay.

CTV-1 = format: functional, cell-based; details: Homo sapiens
Description: SANGER: Inhibition of human CTV-1 cell growth in a cell viability assay.

ChaGo-K-1 = format: functional, cell-based; details: Homo sapiens
Description: SANGER: Inhibition of human ChaGo-K-1 cell growth in a cell viability assay.

DJM-1 = format: functional, cell-based, Homo sapiens; details: Homo sapiens, DJM-1
Description: SANGER: Inhibition of human DJM-1 cell growth in a cell viability assay.

DSH1 = format: functional, cell-based, Homo sapiens; details: Homo sapiens, DSH1
Description: SANGER: Inhibition of human DSH1 cell growth in a cell viability assay.

Detroit 562 = format: functional, cell-based, Homo sapiens; details: Homo sapiens, Detroit 562
Description: SANGER: Inhibition of human Detroit562 cell growth in a cell viability assay.

EFO-21 = format: functional, cell-based, Homo sapiens; details: Homo sapiens, EFO-21
Description: SANGER: Inhibition of human EFO-21 cell growth in a cell viability assay.

EW-1 = format: functional, cell-based, Homo sapiens; details: Homo sapiens, EW-1
Description: SANGER: Inhibition of human EW-1 cell growth in a cell viability assay.

EOL1 = format: functional, cell-based; details: Homo sapiens
Description: SANGER: Inhibition of human EoL-1-cell cell growth in a cell viability assay.

FTC-133 = format: functional, cell-based, Homo sapiens; details: Homo sapiens, FTC-133
G-401 = format: functional, cell-based, Homo sapiens; details: Homo sapiens, G-401
Description: SANGER: Inhibition of human G-401 cell growth in a cell viability assay.

GMS-10 = format: functional, cell-based, Homo sapiens; details: Homo sapiens, GMS-10
Description: SANGER: Inhibition of human GMS-10 cell growth in a cell viability assay.

H4 = format: functional, cell-based; details: Homo sapiens
Description: SANGER: Inhibition of human H4 cell growth in a cell viability assay.

HAL-01 = format: functional, cell-based; details: Homo sapiens
Description: SANGER: Inhibition of human HAL-01 cell growth in a cell viability assay.

HCC 2998 = format: functional, cell-based, Homo sapiens; details: Homo sapiens, HCC 2998
Description: SANGER: Inhibition of human HCC2998 cell growth in a cell viability assay.

HCC38 = format: functional, cell-based, Homo sapiens; details: Homo sapiens, HCC38
Description: SANGER: Inhibition of human HCC38 cell growth in a cell viability assay.

HDLM-2 = format: functional, cell-based; details: Homo sapiens
Description: SANGER: Inhibition of human HDLM-2 cell growth in a cell viability assay.

HOP-92 = format: functional, cell-based, Homo sapiens; details: Homo sapiens, HOP-92
Description: SANGER: Inhibition of human HOP-92 cell growth in a cell viability assay.

HT-29 = format: functional, cell-based, Homo sapiens; details: Homo sapiens, HT-29
Description: SANGER: Inhibition of human HT-29 cell growth in a cell viability assay.

HTC-C3 = format: functional, cell-based, Homo sapiens; details: Homo sapiens, HTC-C3
Description: SANGER: Inhibition of human HTC-C3 cell growth in a cell viability assay.

HuP-T4 = format: functional, cell-based, Homo sapiens; details: Homo sapiens, HuP-T4
Description: SANGER: Inhibition of human HuP-T4 cell growth in a cell viability assay.

IST-SL1 = format: functional, cell-based, Homo sapiens; details: Homo sapiens, IST-SL1
Description: SANGER: Inhibition of human IST-SL1 cell growth in a cell viability assay.

KURAMOCHI = format: functional, cell-based; details: Homo sapiens
Description: SANGER: Inhibition of human KURAMOCHI cell growth in a cell viability assay.

KY821 = format: functional, cell-based; details: Homo sapiens
Description: SANGER: Inhibition of human KY821 cell growth in a cell viability assay.

LCLC-103H cell line = format: functional, cell-based, Homo sapiens; details: Homo sapiens, LCLC-103H
Description: SANGER: Inhibition of human LCLC-103H cell growth in a cell viability assay.

LN-405 = format: functional, cell-based, Homo sapiens; details: Homo sapiens, LN-405
Description: SANGER: Inhibition of human LN-405 cell growth in a cell viability assay.

MDA-MB-361 = format: functional, cell-based, Homo sapiens; details: Homo sapiens, MDA-MB-361
ME-180 = format: functional, cell-based; details: Homo sapiens
Description: SANGER: Inhibition of human ME-180 cell growth in a cell viability assay.

NB69 = format: functional, cell-based, Homo sapiens; details: Homo sapiens, NB69
Description: SANGER: Inhibition of human NB69 cell growth in a cell viability assay.

NCI-H1395 = format: functional, cell-based, Homo sapiens; details: Homo sapiens, NCI-H1395
Description: SANGER: Inhibition of human NCI-H1395 cell growth in a cell viability assay.

NCI-H2122 = format: functional, cell-based, Homo sapiens; details: Homo sapiens, NCI-H2122
Description: SANGER: Inhibition of human NCI-H2122 cell growth in a cell viability assay.

NCI-H510A = format: functional, cell-based; details: Homo sapiens
Description: SANGER: Inhibition of human NCI-H510A cell growth in a cell viability assay.

NCI-H650 = format: functional, cell-based, Homo sapiens; details: Homo sapiens, NCI-H650
Description: SANGER: Inhibition of human NCI-H650 cell growth in a cell viability assay.

SNU1 = format: functional, cell-based; details: Homo sapiens
Description: SANGER: Inhibition of human NCI-SNU-1 cell growth in a cell viability assay.

NEC8 = format: functional, cell-based, Homo sapiens; details: Homo sapiens, NEC8
Description: SANGER: Inhibition of human NEC8 cell growth in a cell viability assay.

NKM-1 = format: functional, cell-based; details: Homo sapiens
Description: SANGER: Inhibition of human NKM-1 cell growth in a cell viability assay.

OMC-1 = format: functional, cell-based, Homo sapiens; details: Homo sapiens, OMC-1
Description: SANGER: Inhibition of human OMC-1 cell growth in a cell viability assay.

OS-RC-2 = format: functional, cell-based, Homo sapiens; details: Homo sapiens, OS-RC-2
Description: SANGER: Inhibition of human OS-RC-2 cell growth in a cell viability assay.

OVCAR-8 = format: functional, cell-based, Homo sapiens; details: Homo sapiens, OVCAR-8
Description: SANGER: Inhibition of human OVCAR-8 cell growth in a cell viability assay.

QIMR-WIL = format: functional, cell-based; details: Homo sapiens
Description: SANGER: Inhibition of human QIMR-WIL cell growth in a cell viability assay.

RMG-I = format: functional, cell-based, Homo sapiens; details: Homo sapiens, RMG-I
Description: SANGER: Inhibition of human RMG-I cell growth in a cell viability assay.

SK-N-AS = format: functional, cell-based, Homo sapiens; details: Homo sapiens, SK-N-AS
Description: SANGER: Inhibition of human SK-N-AS cell growth in a cell viability assay.

SK-N-FI = format: functional, cell-based, Homo sapiens; details: Homo sapiens, SK-N-FI
Description: SANGER: Inhibition of human SK-N-FI cell growth in a cell viability assay.

BV-173 = format: functional, cell-based; details: Homo sapiens
Description: SANGER: Inhibition of human BV-173 cell growth in a cell viability assay.

TE-5 = format: functional, cell-based, Homo sapiens; details: Homo sapiens, TE-5
Description: SANGER: Inhibition of human TE-5 cell growth in a cell viability assay.

TGW = format: functional, cell-based; details: Homo sapiens
Description: SANGER: Inhibition of human TGW cell growth in a cell viability assay.

no-11 = format: functional, cell-based, Homo sapiens; details: Homo sapiens
Description: SANGER: Inhibition of human no-11 cell growth in a cell viability assay.

CCRF-CEM = format: functional, cell-based; details: Homo sapiens
Description: SANGER: Inhibition of human CCRF-CEM cell growth in a cell viability assay.

CGTH-W-1 = format: functional, cell-based, Homo sapiens; details: Homo sapiens, CGTH-W-1
Description: SANGER: Inhibition of human CGTH-W-1 cell growth in a cell viability assay.

COLO-679 = format: functional, cell-based, Homo sapiens; details: Homo sapiens, COLO-679
Description: SANGER: Inhibition of human COLO-679 cell growth in a cell viability assay.

COLO-680N = format: functional, cell-based, Homo sapiens; details: Homo sapiens, COLO-680N
Description: SANGER: Inhibition of human COLO-680N cell growth in a cell viability assay.

COLO-684 = format: functional, cell-based; details: Homo sapiens
Description: SANGER: Inhibition of human COLO-684 cell growth in a cell viability assay.

## Cn1cncc1[C@@](N)(c1ccc(Cl)cc1)c1ccc2c(c1)c(-c1cccc(Cl)c1)cc(=O)n2C [TIPIFARNIB]
COLO-741
  IC50: 6550 nM
COLO-800
  IC50: > 16000 nM
CTV-1
  IC50: 4580 nM
ChaGo-K-1
  IC50: 1750 nM
DJM-1
  IC50: > 16000 nM
DSH1
  IC50: 8530 nM
Detroit 562
  IC50: 4070 nM
EFO-21
  IC50: 4260 nM
EW-1
  IC50: 12300 nM
EOL1
  IC50: 6710 nM
FTC-133
  IC50: > 16000 nM
G-401
  IC50: 503 nM
GMS-10
  IC50: > 16000 nM
H4
  IC50: 1220 nM
HAL-01
  IC50: 6740 nM
HCC 2998
  IC50: 384 nM
HCC38
  IC50: 6100 nM
HDLM-2
  IC50: > 16000 nM
HOP-92
  IC50: 9130 nM
HT-29
  IC50: 547 nM
HTC-C3
  IC50: 4830 nM
HuP-T4
  IC50: 3030 nM
IST-SL1
  IC50: > 16000 nM
KURAMOCHI
  IC50: 4780 nM
KY821
  IC50: > 16000 nM
LCLC-103H cell line
  IC50: 129 nM
LN-405
  IC50: > 16000 nM
MDA-MB-361
  IC50: 2110 nM
ME-180
  IC50: 14500 nM
NB69
  IC50: > 16000 nM
NCI-H1395
  IC50: > 16000 nM
NCI-H2122
  IC50: 191 nM
NCI-H510A
  IC50: > 16000 nM
NCI-H650
  IC50: 773 nM
SNU1
  IC50: > 16000 nM
NEC8
  IC50: > 16000 nM
NKM-1
  IC50: 774 nM
OMC-1
  IC50: 6490 nM
OS-RC-2
  IC50: 15000 nM
OVCAR-8
  IC50: 4450 nM
QIMR-WIL
  IC50: 16.3 nM
RMG-I
  IC50: > 16000 nM
SK-N-AS
  IC50: > 16000 nM
SK-N-FI
  IC50: > 16000 nM
BV-173
  IC50: 2380 nM
TE-5
  IC50: 11900 nM
TGW
  IC50: > 16000 nM
no-11
  IC50: 4010 nM
CCRF-CEM
  IC50: 1640 nM
CGTH-W-1
  IC50: 5010 nM
COLO-679
  IC50: 985 nM
COLO-680N
  IC50: 5630 nM
COLO-684
  IC50: 5710 nM

## Cc1cnc(-c2cnc(NCCNc3ccc(C#N)cn3)nc2-c2ccc(Cl)cc2Cl)[nH]1 [LADUVIGLUSIB]
COLO-741
  IC50: > 2560 nM
COLO-800
  IC50: > 2560 nM
CTV-1
  IC50: > 2560 nM
ChaGo-K-1
  IC50: > 2560 nM
DJM-1
  IC50: > 2560 nM
DSH1
  IC50: > 2560 nM
Detroit 562
  IC50: > 2560 nM
EFO-21
  IC50: > 2560 nM
EW-1
  IC50: > 2560 nM
EOL1
  IC50: > 2560 nM
FTC-133
  IC50: > 2560 nM
G-401
  IC50: > 2560 nM
GMS-10
  IC50: > 2560 nM
H4
  IC50: > 2560 nM
HAL-01
  IC50: > 2560 nM
HCC 2998
  IC50: > 2560 nM
HCC38
  IC50: > 2560 nM
HDLM-2
  IC50: > 2560 nM
HOP-92
  IC50: > 2560 nM
HT-29
  IC50: > 2560 nM
HTC-C3
  IC50: > 2560 nM
HuP-T4
  IC50: > 2560 nM
IST-SL1
  IC50: > 2560 nM
KURAMOCHI
  IC50: > 2560 nM
KY821
  IC50: > 2560 nM
LCLC-103H cell line
  IC50: > 2560 nM
LN-405
  IC50: > 2560 nM
MDA-MB-361
  IC50: > 2560 nM
ME-180
  IC50: > 2560 nM
NB69
  IC50: > 2560 nM
NCI-H1395
  IC50: > 2560 nM
NCI-H2122
  IC50: 2280 nM
NCI-H510A
  IC50: > 2560 nM
NCI-H650
  IC50: > 2560 nM
SNU1
  IC50: > 2560 nM
NEC8
  IC50: > 2560 nM
NKM-1
  IC50: > 2560 nM
OMC-1
  IC50: > 2560 nM
OS-RC-2
  IC50: > 2560 nM
OVCAR-8
  IC50: > 2560 nM
QIMR-WIL
  IC50: > 2560 nM
RMG-I
  IC50: > 2560 nM
SK-N-AS
  IC50: > 2560 nM
SK-N-FI
  IC50: > 2560 nM
BV-173
  IC50: > 2560 nM
TE-5
  IC50: > 2560 nM
TGW
  IC50: > 2560 nM
no-11
  IC50: > 2560 nM
CCRF-CEM
  IC50: > 2560 nM
CGTH-W-1
  IC50: > 2560 nM
COLO-679
  IC50: > 2560 nM
COLO-680N
  IC50: > 2560 nM
COLO-684
  IC50: > 2560 nM
